Like-named read-outs stand apart in the source and are kept apart here.
Tests used:
Details in all cases: Part II, 1 g/l in apple juice pH 4.5, 25° C.
Thermophilic bacilli = system: Thermophilic bacilli
Bacilli = system: Bacilli
Gram-negative bacteria = system: Gram-negative bacteria
Molds I = system: Molds I
Molds II = system: Molds II
Lactic acid bacteria = system: Lactic acid bacteria
Acetic acid bacteria = system: Acetic acid bacteria
Gram-positive bacteria = system: Gram-positive bacteria
Yeasts = system: Yeasts
Clostridia = system: Clostridia
[1] = 1 day after inoculation (1.3 × 10^4)
[2] = 3 days after inoculation (1.3 × 10^4)
[3] = 7 days after inoculation (1.3 × 10^4)
[4] = 14 days after inoculation (1.3 × 10^4)
[5] = 1 day after inoculation (3.3 × 10^4)
[6] = 3 days after inoculation (3.3 × 10^4)
[7] = 7 days after inoculation (3.3 × 10^4)
[8] = 14 days after inoculation (3.3 × 10^4)
[9] = 1 day after inoculation (2.7 × 10^4)
[10] = 3 days after inoculation (2.7 × 10^4)
[11] = 7 days after inoculation (2.7 × 10^4)
[12] = 14 days after inoculation (2.7 × 10^4)
[13] = 1 day after inoculation (2.2 × 10^4)
[14] = 3 days after inoculation (2.2 × 10^4)
[15] = 7 days after inoculation (2.2 × 10^4)
[16] = 14 days after inoculation (2.2 × 10^4)
[17] = 1 day after inoculation (2.5 × 10^4)
[18] = 3 days after inoculation (2.5 × 10^4)
[19] = 7 days after inoculation (2.5 × 10^4)
[20] = 14 days after inoculation (2.5 × 10^4)
[21] = 1 day after inoculation (2.8 × 10^4)
[22] = 3 days after inoculation (2.8 × 10^4)
[23] = 7 days after inoculation (2.8 × 10^4)
[24] = 14 days after inoculation (2.8 × 10^4)
[25] = 1 day after inoculation (2.1 × 10^4)
[26] = 3 days after inoculation (2.1 × 10^4)
[27] = 7 days after inoculation (2.1 × 10^4)
[28] = 14 days after inoculation (2.1 × 10^4)
[29] = 1 day after inoculation (2.6 × 10^4)
[30] = 3 days after inoculation (2.6 × 10^4)
[31] = 7 days after inoculation (2.6 × 10^4)
[32] = 14 days after inoculation (2.6 × 10^4)

SMILES	Number of surviving microorganisms per g of contaminated sample, Thermophilic bacilli (Thermophilic bacilli; [1])	Number of surviving microorganisms per g of contaminated sample, Thermophilic bacilli (Thermophilic bacilli; [2])	Number of surviving microorganisms per g of contaminated sample, Thermophilic bacilli (Thermophilic bacilli; [3])	Number of surviving microorganisms per g of contaminated sample, Thermophilic bacilli (Thermophilic bacilli; [4]) [CFU/g]	Number of surviving microorganisms per g of contaminated sample, Bacilli (Bacilli; [5])	Number of surviving microorganisms per g of contaminated sample, Bacilli (Bacilli; [6])	Number of surviving microorganisms per g of contaminated sample, Bacilli (Bacilli; [7])	Number of surviving microorganisms per g of contaminated sample, Bacilli (Bacilli; [8])	Number of surviving microorganisms per g of contaminated sample, Gram-negative bacteria (Gram-negative bacteria; [9])	Number of surviving microorganisms per g of contaminated sample, Gram-negative bacteria (Gram-negative bacteria; [10])	Number of surviving microorganisms per g of contaminated sample, Gram-negative bacteria (Gram-negative bacteria; [11])	Number of surviving microorganisms per g of contaminated sample, Gram-negative bacteria (Gram-negative bacteria; [12]) [CFU/g]	Number of surviving microorganisms per g of contaminated sample, Molds I (Molds I; [13])	Number of surviving microorganisms per g of contaminated sample, Molds I (Molds I; [14])	Number of surviving microorganisms per g of contaminated sample, Molds I (Molds I; [15])	Number of surviving microorganisms per g of contaminated sample, Molds I (Molds I; [16])	Number of surviving microorganisms per g of contaminated sample, Molds II (Molds II; [17])	Number of surviving microorganisms per g of contaminated sample, Molds II (Molds II; [18])	Number of surviving microorganisms per g of contaminated sample, Molds II (Molds II; [19])	Number of surviving microorganisms per g of contaminated sample, Molds II (Molds II; [20])	also measured
CC(=O)[O-].CC(=O)[O-].[Ca+2] [Calcium Acetate]	2.1 × 10^3 CFU/g	6.0 × 10^2 CFU/g	<10 CFU/g	<10	1.6 × 10^3 CFU/g	1.0 × 10^3 CFU/g	1.8 × 10^3 CFU/g	1.8 × 10^3 CFU/g	1.7 × 10^4 CFU/g	1.3 × 10^4 CFU/g	2.2 × 10^3 CFU/g	<100	1.1 × 10^4 CFU/g	2.2 × 10^3 CFU/g	7.6 × 10^3 CFU/g	4.5 × 10^4 CFU/g	1.5 × 10^4 CFU/g	1.2 × 10^4 CFU/g	>1.0 × 10^5 CFU/g	3.5 × 10^4 CFU/g	Number of surviving microorganisms per g of contaminated sample, Lactic acid bacteria (Lactic acid bacteria; [9]): 5.6 × 10^5 CFU/g; Number of surviving microorganisms per g of contaminated sample, Lactic acid bacteria (Lactic acid bacteria; [10]): >3.0 × 10^6 CFU/g; Number of surviving microorganisms per g of contaminated sample, Lactic acid bacteria (Lactic acid bacteria; [11]): >3.0 × 10^6 CFU/g; Number of surviving microorganisms per g of contaminated sample, Lactic acid bacteria (Lactic acid bacteria; [12]): 2.4 × 10^4 CFU/g; Number of surviving microorganisms per g of contaminated sample, Acetic acid bacteria (Acetic acid bacteria; [21]): 8.4 × 10^5 CFU/g; Number of surviving microorganisms per g of contaminated sample, Acetic acid bacteria (Acetic acid bacteria; [22]): >3.0 × 10^6 CFU/g; Number of surviving microorganisms per g of contaminated sample, Acetic acid bacteria (Acetic acid bacteria; [23]): >3.0 × 10^6 CFU/g; Number of surviving microorganisms per g of contaminated sample, Acetic acid bacteria (Acetic acid bacteria; [24]): 1.5 × 10^6 CFU/g; Number of surviving microorganisms per g of contaminated sample, Gram-positive bacteria (Gram-positive bacteria; [25]): 1.1 × 10^5 CFU/g; Number of surviving microorganisms per g of contaminated sample, Gram-positive bacteria (Gram-positive bacteria; [26]): 9.0 × 10^4 CFU/g; Number of surviving microorganisms per g of contaminated sample, Gram-positive bacteria (Gram-positive bacteria; [27]): 6.7 × 10^3 CFU/g; Number of surviving microorganisms per g of contaminated sample, Gram-positive bacteria (Gram-positive bacteria; [28]): 5.9 × 10^3 CFU/g; Number of surviving microorganisms per g of contaminated sample, Yeasts (Yeasts; [29]): 1.3 × 10^6 CFU/g; Number of surviving microorganisms per g of contaminated sample, Yeasts (Yeasts; [30]): 2.5 × 10^6 CFU/g; Number of surviving microorganisms per g of contaminated sample, Yeasts (Yeasts; [31]): >3.0 × 10^6 CFU/g; Number of surviving microorganisms per g of contaminated sample, Yeasts (Yeasts; [32]): >3.0 × 10^6 CFU/g
O=C[O-].O=C[O-].[Ca+2] [Calcium Formate]	2.3 × 10^3 CFU/g	8.0 × 10^2 CFU/g	6.0 × 10^2 CFU/g	<10	1.7 × 10^3 CFU/g	1.5 × 10^3 CFU/g	1.4 × 10^3 CFU/g	1.7 × 10^3 CFU/g	1.5 × 10^4 CFU/g	3.6 × 10^3 CFU/g	2.3 × 10^3 CFU/g	75	4.1 × 10^3 CFU/g	2.9 × 10^3 CFU/g	1.9 × 10^3 CFU/g	2.6 × 10^3 CFU/g	1.0 × 10^4 CFU/g	1.5 × 10^3 CFU/g	>3.0 × 10^4 CFU/g	3.9 × 10^5 CFU/g	Number of surviving microorganisms per g of contaminated sample, Clostridia (Clostridia; 1 day after inoculation (2.9 × 10^4)): 4.0 × 10^2 CFU/g; Number of surviving microorganisms per g of contaminated sample, Clostridia (Clostridia; 3 days after inoculation (2.9 × 10^4)): 2.0 × 10^2 CFU/g; Number of surviving microorganisms per g of contaminated sample, Clostridia (Clostridia; 7 days after inoculation (2.9 × 10^4)): <100 CFU/g; Number of surviving microorganisms per g of contaminated sample, Clostridia (Clostridia; 14 days after inoculation (2.9 × 10^4)): 10 CFU/g; Number of surviving microorganisms per g of contaminated sample, Lactic acid bacteria (Lactic acid bacteria; [9]): 4.4 × 10^3 CFU/g; Number of surviving microorganisms per g of contaminated sample, Lactic acid bacteria (Lactic acid bacteria; [10]): 2.5 × 10^4 CFU/g; Number of surviving microorganisms per g of contaminated sample, Lactic acid bacteria (Lactic acid bacteria; [11]): >3.0 × 10^6 CFU/g; Number of surviving microorganisms per g of contaminated sample, Lactic acid bacteria (Lactic acid bacteria; [12]): >3.0 × 10^6 CFU/g; Number of surviving microorganisms per g of contaminated sample, Acetic acid bacteria (Acetic acid bacteria; [21]): 8.7 × 10^5 CFU/g; Number of surviving microorganisms per g of contaminated sample, Acetic acid bacteria (Acetic acid bacteria; [22]): 2.5 × 10^6 CFU/g; Number of surviving microorganisms per g of contaminated sample, Acetic acid bacteria (Acetic acid bacteria; [23]): >3.0 × 10^6 CFU/g; Number of surviving microorganisms per g of contaminated sample, Acetic acid bacteria (Acetic acid bacteria; [24]): >3.0 × 10^6 CFU/g; Number of surviving microorganisms per g of contaminated sample, Gram-positive bacteria (Gram-positive bacteria; [25]): 2.2 × 10^4 CFU/g; Number of surviving microorganisms per g of contaminated sample, Gram-positive bacteria (Gram-positive bacteria; [26]): 8.9 × 10^3 CFU/g; Number of surviving microorganisms per g of contaminated sample, Gram-positive bacteria (Gram-positive bacteria; [27]): 4.6 × 10^3 CFU/g; Number of surviving microorganisms per g of contaminated sample, Gram-positive bacteria (Gram-positive bacteria; [28]): 2.0 × 10^3 CFU/g; Number of surviving microorganisms per g of contaminated sample, Yeasts (Yeasts; [29]): 7.4 × 10^5 CFU/g; Number of surviving microorganisms per g of contaminated sample, Yeasts (Yeasts; [30]): 1.0 × 10^6 CFU/g; Number of surviving microorganisms per g of contaminated sample, Yeasts (Yeasts; [31]): >3.0 × 10^6 CFU/g; Number of surviving microorganisms per g of contaminated sample, Yeasts (Yeasts; [32]): >3.0 × 10^6 CFU/g

— US6693216B2, “Calcium double salts” (Nutrinova Nutrition Specialties & Food Ingredients GmbH, priority 2000, dated 2004)
